System: volunteers who tested negative for HIV antibodies
Experiment: Clinical effects observed in volunteers who tested negative for HIV antibodies
Format: in vivo, human
Description: was given at dosage of 0.033 mg/kg/da to 0.133 mg/kg/da for seven days. As indicated in the Table, the unexpected effects observed in these volunteers who tested negative for HIV antibodies were the following: […]

“D--Ala--Ser--Thr--Thr--Thr--Asn--Tyr--Thr--amide (ASTTTNYT; N-terminal D-residue; C-terminal amide; printed: Ala--Ser--Thr--Thr--Thr--Asn--Tyr--Thr--) [Peptide T]” was tested, and the “symptoms of substance abuse, childhood dyslexia and depression” value (0.033 mg/kg/da to 0.133 mg/kg/da for seven days) was “ameliorated”, the “scores on memory and attention components of standard neuropsychologic tests” value (0.033-0.133 mg/kg/da for seven days, effect remitted after Peptide T was discontinued) was “Incremental scores” and the “physical activity while on drug” value (all subjects, did not continue after drug discontinuance) was “increases in physical activity”. The “mood scores on depression scales” value (the two research volunteers who had prior histories of depression) was “Improved mood scores” and the “duration of the improved mood effect” value (the two research volunteers who had prior histories of depression, follow-up) was “maintained for one month of follow-up”.

Reference: patent US5063206A, “Compositions having use as treatment of neuropsychiatric deficits” (The United States of Americas as represented by the …, priority 1989, dated 1991)
